According to patent publication US6218417A, “Ace-inhibitor nitric salts” (priority 1997, dated 2001):
Where a name gives a salt, the structure may show the parent alone.

Columns and labels:
[1] = system: platelet aggregation (collagen-induced); assay: Platelet-antiaggregating activity, in-vivo collagen model (Pinon et al.); set-up: species or system rats; details: 10 mg/Kg/os per day (as Enalapril cation) for five days; collagen 2 mg/Kg i.v.; referred to control group
Description: The in-vivo model described by Pinon et al., J. Pharm. Methods 12, 79-84, 1984, was used.
Two groups of 6 rats each, weighing about 200 to 250 g, were treated with an oral. dose of 10 mg/Kg/die of Enalapril maleate or nitrate respectively (the dose is referred to the amount of Enalapril cation in the salt) for five days, while a third group acted as a control group. About 18 hours before the last treatment, the animals were fasted. One hour after this treatment the animals were anaesthetised with 10% ethyl urethane (1 g/Kg intraperitoneally) and the left jugular vein and the right carotid artery were cannulated. Collagen (type 6, Sigma) was then administered intravenously at a dose of 2 mg/Kg. Three minutes later two blood samples, A and B, were collected from the carotid artery of each animal.
1.6 ml of EDTA/formalin buffer (24 mM tetrasodium EDTA, 1.3 mM KH2 PO4, 13.4 mM Na2 HPO4) was added to the first sample (sample A) containing 0.4 ml of blood.
The second blood sample (sample B) had the same volume as the previous sample (0.4 ml of blood) but, instead of the buffer, 1.6 ml of a saline solution (physiological NaCl solution) was added. […]
A microscope platelet count was then performed. […] The results shown in Table III are expressed as a % of platelet aggregation and are referred to the % value obtained in the control group.

[2] = system: angiotensin-I-induced hypertension; assay: Antihypertensive activity: inhibition of angiotensin I-induced hypertension (Laubie et al.); type: in vivo, rats; details: angiotensin I 100 μg/Kg i.v.
Description: The antihypertensive activity of the nitrate salts of the compounds of the invention was determined in accordance with the method of Laubie et al., J. Cardiovasc. Pharmacol. 6, 1076, 1984. No 6 rats weighing about 200 to 250 g were used per experimental group. Four groups were formed, which were intraperitoneally treated respectively as shown below:
The doses are referred to the amount of Enalapril (cation) in the salt. The antihypertensive response was evaluated as per-cent inhibition of the hypertension induced by the administration of a dose of 100 μg/Kg i.v. of angiotensin I as described in the above article.

[3] = system: bronchial spasm induced by substance P; assay: Bronchial spasm induced by substance P (Subissi et al.; Konzett); type: in vivo, female Guinea pigs; details: for Tidal air change % in bronchial spasm induced by substance P: 30 minutes before substance P (200 μg/Kg)
Description: Activity was evaluated measuring the strengthening of bronchial spasm induced by substance P, determined in accordance with the method of Subissi et al., Br. J. Pharmacol. 100, 502-6, 1990. The model described by Subissi is predictive of bronchial side effects due to the administration of ACE inhibitors.
Four groups (6 animals/group) of female Guinea pigs weighing about 300 to 400 g were anaesthetised with ethyl urethane (200 mg/Kg) under artificial pressure at constant positive pressure. The compounds were administered intra-peritoneally 30 minutes before substance P. The salt doses administered were the same as in Example 4. The changes in tidal air were then measured in accordance wuth the method of Konzett, Arch. Exp. Pathol. Pharmacol. 195, 71, 1940, before and after the administration of substance P (200 μg/Kg), with or without the test salts, i.e. Enalapril maleate and nitrate.

[4] = 100 μg/Kg/i.p. (as Enalapril cation)
[5] = 300 μg/Kg/i.p. (as Enalapril cation)

Row | Structure (SMILES) | Antiaggregating activity % [1] | Inhibition % for angiotensin-I-induced hypertension [2, 4] | Inhibition % for angiotensin-I-induced hypertension [2, 5] | Tidal air change % in bronchial spasm induced by substance P ([3]; 100 μg/Kg/i.p.) | Tidal air change % in bronchial spasm induced by substance P ([3]; 300 μg/Kg/i.p.) | Respiratory profile ([3]; compared to Enalapril maleate, 100 and 300 μg/Kg i.p.)
1 | CCOC(=O)[C@H](CCc1ccccc1)N[C@@H](C)C(=O)N1CCC[C@H]1C(=O)O [Enalapril nitrate, (S)-1-[N-[1-(ethoxycarbonyl)-3-phenylpropyl]-L-alanyl]-L-proline] | 58% | 35% | 67% | -5% | -7% | better respiratory profile than Enalapril maleate at both tested doses
2 | CCOC(=O)[C@H](CCc1ccccc1)N[C@@H](C)C(=O)N1CCC[C@H]1C(=O)O [Enalapril maleate, reference compound] | 5% | 18% | 55% | +16% | +28% | 
